According to patent US20150087627A1, “COMBINATION OF KINASE INHIBITORS AND USES THEREOF” (Intellikine LLC, priority 2011, published 2015):
Read-outs that look alike come from different tables or passages of the source.

Tests used:
Format in all cases: biochemical
PI3K α (p110α/p85α) = target: T1, PI3K α (p110α/p85α) (Homo sapiens, UniProt P42336); assay: PI 3-Kinase (human) HTRF assay, PI3K α; details: read-out: PI3K α IC50
T1 construct: purchased Upstate / Millipore Corporation

PI3K δ = target: T2, PI3K δ (Homo sapiens, UniProt O00329); assay: PI 3-Kinase (human) HTRF assay, PI3K δ
T2 construct: purchased Upstate / Millipore Corporation

PI3K β (p110β/p85α) = target: T3, PI3K β (p110β/p85α) (Homo sapiens, UniProt P42338); assay: PI 3-Kinase (human) HTRF assay, PI3K β
T3 construct: purchased Upstate / Millipore Corporation

PI3K γ (p110γ) = target: T4, PI3K γ (p110γ) (Homo sapiens, UniProt P48736); assay: PI 3-Kinase (human) HTRF assay, PI3K γ; details: read-out: PI3K γ IC50
T4 construct: purchased Upstate / Millipore Corporation
T4 sequence (P48736 whole entry): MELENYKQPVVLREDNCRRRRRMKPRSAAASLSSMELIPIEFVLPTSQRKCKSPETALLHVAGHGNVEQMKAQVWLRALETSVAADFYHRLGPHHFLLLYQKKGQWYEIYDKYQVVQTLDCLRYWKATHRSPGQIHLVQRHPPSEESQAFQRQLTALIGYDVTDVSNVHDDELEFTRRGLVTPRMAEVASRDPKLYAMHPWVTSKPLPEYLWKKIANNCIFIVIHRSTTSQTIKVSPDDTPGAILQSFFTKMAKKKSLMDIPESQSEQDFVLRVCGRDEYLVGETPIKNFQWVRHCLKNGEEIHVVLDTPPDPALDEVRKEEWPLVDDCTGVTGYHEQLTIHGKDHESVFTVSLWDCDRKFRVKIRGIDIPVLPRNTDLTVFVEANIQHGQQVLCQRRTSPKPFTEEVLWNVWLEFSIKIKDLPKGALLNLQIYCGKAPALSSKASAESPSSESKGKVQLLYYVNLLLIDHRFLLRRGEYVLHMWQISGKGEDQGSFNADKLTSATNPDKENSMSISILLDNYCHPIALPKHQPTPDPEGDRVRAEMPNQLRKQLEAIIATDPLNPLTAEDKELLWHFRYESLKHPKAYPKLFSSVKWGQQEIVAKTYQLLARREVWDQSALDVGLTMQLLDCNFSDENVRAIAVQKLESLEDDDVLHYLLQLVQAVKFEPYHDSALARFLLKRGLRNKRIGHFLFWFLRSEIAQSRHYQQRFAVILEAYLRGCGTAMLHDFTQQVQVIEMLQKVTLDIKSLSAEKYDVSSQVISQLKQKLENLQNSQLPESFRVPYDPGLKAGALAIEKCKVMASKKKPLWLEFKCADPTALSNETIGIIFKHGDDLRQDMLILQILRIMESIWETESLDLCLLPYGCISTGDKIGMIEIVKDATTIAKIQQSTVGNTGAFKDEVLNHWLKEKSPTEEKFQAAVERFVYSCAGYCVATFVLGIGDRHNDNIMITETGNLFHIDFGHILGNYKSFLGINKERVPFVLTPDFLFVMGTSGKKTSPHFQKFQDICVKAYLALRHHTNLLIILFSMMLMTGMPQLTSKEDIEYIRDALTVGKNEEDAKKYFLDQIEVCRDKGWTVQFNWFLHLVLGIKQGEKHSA

T1 sequence (P42336 whole entry): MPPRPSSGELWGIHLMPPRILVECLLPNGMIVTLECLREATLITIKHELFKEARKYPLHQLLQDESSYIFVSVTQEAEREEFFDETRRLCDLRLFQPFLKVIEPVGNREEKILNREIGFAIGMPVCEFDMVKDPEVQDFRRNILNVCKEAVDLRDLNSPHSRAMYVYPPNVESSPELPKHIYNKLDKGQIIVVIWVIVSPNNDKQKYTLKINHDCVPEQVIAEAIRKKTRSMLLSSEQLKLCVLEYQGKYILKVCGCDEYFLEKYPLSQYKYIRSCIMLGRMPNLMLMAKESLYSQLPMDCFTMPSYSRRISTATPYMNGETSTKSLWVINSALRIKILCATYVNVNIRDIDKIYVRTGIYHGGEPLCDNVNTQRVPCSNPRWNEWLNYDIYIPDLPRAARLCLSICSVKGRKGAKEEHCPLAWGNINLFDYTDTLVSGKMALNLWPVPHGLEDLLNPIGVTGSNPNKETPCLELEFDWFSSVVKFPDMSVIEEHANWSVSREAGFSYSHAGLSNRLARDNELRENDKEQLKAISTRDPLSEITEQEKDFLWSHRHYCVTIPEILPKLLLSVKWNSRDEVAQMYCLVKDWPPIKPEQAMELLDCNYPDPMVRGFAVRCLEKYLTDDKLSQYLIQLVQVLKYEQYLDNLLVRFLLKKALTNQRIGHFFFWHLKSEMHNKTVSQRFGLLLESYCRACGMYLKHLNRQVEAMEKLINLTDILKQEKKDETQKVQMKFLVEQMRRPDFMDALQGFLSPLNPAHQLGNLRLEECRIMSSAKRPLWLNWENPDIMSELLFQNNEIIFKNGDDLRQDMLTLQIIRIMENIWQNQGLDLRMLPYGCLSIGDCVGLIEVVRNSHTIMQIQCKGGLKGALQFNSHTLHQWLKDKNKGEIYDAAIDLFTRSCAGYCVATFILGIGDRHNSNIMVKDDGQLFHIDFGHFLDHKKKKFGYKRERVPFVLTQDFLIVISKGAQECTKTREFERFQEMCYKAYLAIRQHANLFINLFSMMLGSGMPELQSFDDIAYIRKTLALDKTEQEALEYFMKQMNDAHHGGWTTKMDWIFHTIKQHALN
T1 sequence (P27986 whole entry partner): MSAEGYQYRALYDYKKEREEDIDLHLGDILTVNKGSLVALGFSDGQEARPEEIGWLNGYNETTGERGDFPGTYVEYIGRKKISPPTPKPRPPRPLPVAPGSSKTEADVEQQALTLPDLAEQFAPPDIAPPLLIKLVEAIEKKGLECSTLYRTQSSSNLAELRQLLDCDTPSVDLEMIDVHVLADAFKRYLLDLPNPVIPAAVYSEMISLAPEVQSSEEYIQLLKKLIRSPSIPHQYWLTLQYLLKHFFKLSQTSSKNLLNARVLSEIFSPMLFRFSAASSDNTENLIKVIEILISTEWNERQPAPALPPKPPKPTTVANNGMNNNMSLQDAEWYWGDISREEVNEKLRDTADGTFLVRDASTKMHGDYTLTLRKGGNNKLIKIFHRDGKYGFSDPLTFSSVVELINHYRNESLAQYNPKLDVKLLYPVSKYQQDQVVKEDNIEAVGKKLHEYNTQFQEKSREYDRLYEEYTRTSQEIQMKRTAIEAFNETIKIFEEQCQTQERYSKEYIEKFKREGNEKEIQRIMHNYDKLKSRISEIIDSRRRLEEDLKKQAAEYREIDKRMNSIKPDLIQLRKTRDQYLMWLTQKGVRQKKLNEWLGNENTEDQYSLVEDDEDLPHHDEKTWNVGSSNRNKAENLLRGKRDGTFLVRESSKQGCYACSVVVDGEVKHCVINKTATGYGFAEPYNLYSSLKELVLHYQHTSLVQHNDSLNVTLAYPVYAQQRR
T2 sequence (O00329 whole entry): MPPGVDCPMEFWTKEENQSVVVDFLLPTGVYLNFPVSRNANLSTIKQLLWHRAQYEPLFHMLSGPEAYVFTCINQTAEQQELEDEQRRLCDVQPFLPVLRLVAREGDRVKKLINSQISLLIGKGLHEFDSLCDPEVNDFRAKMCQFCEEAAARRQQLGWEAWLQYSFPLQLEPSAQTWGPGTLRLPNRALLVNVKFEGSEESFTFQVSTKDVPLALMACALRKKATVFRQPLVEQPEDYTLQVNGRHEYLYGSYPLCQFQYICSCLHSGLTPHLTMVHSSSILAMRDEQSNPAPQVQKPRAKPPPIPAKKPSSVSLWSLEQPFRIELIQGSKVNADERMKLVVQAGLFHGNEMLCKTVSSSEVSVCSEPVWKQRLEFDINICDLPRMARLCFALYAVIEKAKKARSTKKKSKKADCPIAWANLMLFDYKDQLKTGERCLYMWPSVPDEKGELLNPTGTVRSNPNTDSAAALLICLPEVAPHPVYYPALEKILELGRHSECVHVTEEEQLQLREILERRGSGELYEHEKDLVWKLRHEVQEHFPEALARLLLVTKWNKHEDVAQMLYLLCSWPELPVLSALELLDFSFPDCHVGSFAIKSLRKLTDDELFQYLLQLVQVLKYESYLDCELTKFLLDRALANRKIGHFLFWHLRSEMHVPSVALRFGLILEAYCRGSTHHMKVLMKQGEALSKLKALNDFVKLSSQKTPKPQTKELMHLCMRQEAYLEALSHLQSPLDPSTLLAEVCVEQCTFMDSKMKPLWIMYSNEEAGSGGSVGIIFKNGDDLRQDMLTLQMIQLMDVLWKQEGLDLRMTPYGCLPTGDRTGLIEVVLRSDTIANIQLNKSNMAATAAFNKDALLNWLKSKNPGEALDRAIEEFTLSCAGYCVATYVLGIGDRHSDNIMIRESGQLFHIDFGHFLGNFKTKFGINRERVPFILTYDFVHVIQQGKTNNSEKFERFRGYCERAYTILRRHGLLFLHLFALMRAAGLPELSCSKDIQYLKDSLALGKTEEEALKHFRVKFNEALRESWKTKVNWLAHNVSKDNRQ
T2 sequence (P27986 whole entry partner): as the sequence (P27986 whole entry partner) above
T3 sequence (P42338 whole entry): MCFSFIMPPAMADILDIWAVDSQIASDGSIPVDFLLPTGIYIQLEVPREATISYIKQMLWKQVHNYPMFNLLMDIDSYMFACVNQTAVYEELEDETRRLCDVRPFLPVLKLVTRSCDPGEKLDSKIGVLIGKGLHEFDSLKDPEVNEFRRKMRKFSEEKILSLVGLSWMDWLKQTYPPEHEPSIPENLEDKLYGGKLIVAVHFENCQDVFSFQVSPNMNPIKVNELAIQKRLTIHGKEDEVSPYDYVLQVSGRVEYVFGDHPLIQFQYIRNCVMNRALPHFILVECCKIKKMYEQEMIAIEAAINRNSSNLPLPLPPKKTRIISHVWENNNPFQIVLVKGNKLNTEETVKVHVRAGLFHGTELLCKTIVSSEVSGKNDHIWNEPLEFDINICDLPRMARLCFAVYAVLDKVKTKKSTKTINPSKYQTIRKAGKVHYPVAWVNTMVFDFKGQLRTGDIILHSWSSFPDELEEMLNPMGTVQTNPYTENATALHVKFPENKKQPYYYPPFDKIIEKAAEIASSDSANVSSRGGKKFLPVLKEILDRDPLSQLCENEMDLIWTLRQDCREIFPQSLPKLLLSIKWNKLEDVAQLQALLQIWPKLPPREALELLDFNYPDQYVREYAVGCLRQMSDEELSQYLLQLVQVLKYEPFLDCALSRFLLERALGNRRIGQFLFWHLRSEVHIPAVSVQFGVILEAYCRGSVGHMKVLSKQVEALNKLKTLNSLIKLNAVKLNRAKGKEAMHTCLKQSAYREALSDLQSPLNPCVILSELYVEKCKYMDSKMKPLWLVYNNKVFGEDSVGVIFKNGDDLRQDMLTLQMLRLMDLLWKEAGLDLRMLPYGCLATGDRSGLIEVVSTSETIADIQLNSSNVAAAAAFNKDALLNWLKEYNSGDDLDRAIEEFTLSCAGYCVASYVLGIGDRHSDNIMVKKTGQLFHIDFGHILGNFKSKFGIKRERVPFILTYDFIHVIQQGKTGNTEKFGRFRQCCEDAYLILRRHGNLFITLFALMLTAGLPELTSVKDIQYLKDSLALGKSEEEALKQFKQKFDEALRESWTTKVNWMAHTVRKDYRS
T3 sequence (P27986 whole entry partner): as the sequence (P27986 whole entry partner) above

Row | Compound | IC50 (PI3K α (p110α/p85α)) [µM] | IC50 (PI3K δ; read-out: PI3K δ IC50) [µM] | IC50 (PI3K β (p110β/p85α); read-out: PI3K β IC50) [nM] | IC50 (PI3K γ (p110γ)) [µM] | IC50 (PI3K δ) [µM] | IC50 (PI3K β (p110β/p85α); PI3K β IC50 (nM)) [nM]
1 | Nc1nc2cc(-c3ccc4ncc(N5CC(C(=O)N6CCOCC6)C5)nc4c3)ccc2o1 [Compound 252] | > 10 | < 10 | < 10000 | < 10 | – | –
2 | Nc1nc2cc(-c3cnc4ccc(C(=O)N5C6CCC5COC6)cn34)ccc2o1 [Compound 540] | > 10 | > 10 | > 10000 | > 10 | – | –
3 | Cc1nccn1C1CCN(c2cnc3ccc(-c4ccc5oc(N)nc5c4)cc3n2)CC1 [Compound 344] | < 0.1 | < 1 | < 10000 | < 10 | – | –
4 | Nc1nc2cc(-c3ccc4ncc(N5CCn6cncc6C5)nc4c3)ccc2o1 [Compound 394] | < 0.1 | < 1 | < 100 | < 0.1 | – | –
5 | Nc1nc2cc(-c3ccc4ncc(C(=O)N5CC(O)C5)n4c3)ccc2o1 [Compound 200] | < 0.1 | < 10 | < 10000 | < 0.1 | – | –
6 | Nc1nc2cc(-c3ccc4ncc(NC5CCOCC5)nc4c3)ccc2o1 [Compound 96] | < 0.1 | < 1 | < 10000 | < 0.1 | – | –
7 | CN1CCN(S(=O)(=O)c2cnc3ccc(-c4ccc5oc(N)nc5c4)cn23)CC1 [Compound 110] | > 10 | > 10 | > 10000 | > 10 | – | –
8 | CC(C)(C#N)c1ccc(Nc2ncnc3ccc(-c4ccc5oc(N)nc5c4)cc23)cc1 [Compound 102] | < 0.1 | < 1 | < 1000 | < 0.1 | – | –
9 | Nc1nc2cc(-c3ccc4ncc(C(=O)N5CC6(C5)OCCO6)n4c3)ccc2o1 [Compound 494] | < 0.1 | – | – | < 1 | > 10 | < 10000
10 | CN1CCN(c2nc3cc(-c4ccc5oc(N)nc5c4)ccc3c(=O)n2C)CC1 [Compound 79] | < 10 | > 10 | > 10000 | > 10 | – | –
11 | CS(=O)(=O)Nc1cccc(-c2ccc3ncc(C(=O)N4CCOCC4)n3c2)c1 [Compound 443] | > 10 | > 10 | > 10000 | > 10 | – | –
12 | Nc1nc2ccc(-c3ccc4ncc(C(=O)N5CCOCC5)n4c3)cc2s1 [Compound 125] | < 1 | < 10 | > 10000 | < 1 | – | –
13 | CNC(=O)N1CCN(c2cnc3ccc(-c4ccc5oc(N)nc5c4)cc3n2)CC1 [Compound 154] | < 0.1 | < 10 | < 1000 | < 0.1 | – | –
14 | Nc1nc2cc(-c3ccc4ncc(N5CCNC(C(F)F)C5)nc4c3)ccc2o1 (centres unmarked) [Compound 413] | < 0.1 | < 10 | < 1000 | < 1 | – | –
15 | CN1CCN(c2ccnc3ccc(-c4ccc5oc(N)nc5c4)cc23)CC1 [Compound 21] | < 1 | < 10 | < 10000 | < 10 | – | –
16 | Nc1nc2cc(-c3ccc4ncc(-c5ccccn5)nc4c3)ccc2o1 [Compound 195] | < 1 | > 10 | < 10000 | < 0.1 | – | –
17 | Nc1nc2cc(-c3ccc4ncc(C(=O)NC5CC5)n4c3)ccc2o1 [Compound 187] | < 0.1 | < 1 | < 10000 | < 0.1 | – | –
18 | Nc1nc2cc(-c3ccc4ncc(-c5cn[nH]c5)n4n3)ccc2o1 [Compound 59] | < 0.1 | < 1 | < 100 | < 0.1 | – | –
19 | CC(=O)Nc1nc2cc(-c3ccc4nc(N)oc4c3)ccc2s1 [Compound 251] | < 0.1 | < 0.1 | < 100 | < 0.1 | – | –
20 | C[C@H](N)C(=O)N1CCN(c2cnc3ccc(-c4ccc5oc(N)nc5c4)cc3n2)CC1 [Compound 207] | < 0.1 | < 1 | < 100 | < 0.1 | – | –
21 | CCN1CCN(c2cnc3ccc(-c4ccc5oc(N)nc5c4)cc3n2)C(=O)C1 [Compound 391] | < 10 | > 10 | > 10000 | > 10 | – | –
22 | CN1CCC(NC(=O)c2cnc3ccc(-c4ccc5oc(N)nc5c4)cn23)CC1 [Compound 159] | < 0.1 | < 0.1 | < 1000 | < 1 | – | –
23 | Nc1nc2cc(-c3ccc4ncc(N5CCN(CC6CC6)CC5=O)nc4c3)ccc2o1 [Compound 393] | < 10 | > 10 | > 10000 | > 10 | – | –
24 | CC(C)(C)N1CCN(C(=O)c2cnc3ccc(-c4ccc5oc(N)nc5c4)cn23)CC1 [Compound 191] | < 0.1 | < 10 | < 10000 | < 10 | – | –
25 | Nc1nc2cc(-c3ccc4ncc(C(=O)N5CCCCC5)n4c3)ccc2o1 [Compound 196] | < 1 | > 10 | < 10000 | < 10 | – | –
26 | CS(=O)(=O)N1CCN(C(=O)c2cnc3ccc(-c4ccc5oc(N)nc5c4)cn23)CC1 [Compound 112] | < 0.1 | < 10 | > 10000 | < 1 | – | –

Continued, in another order:

Row | IC50 (PI3K α (p110α/p85α)) [µM] | IC50 (PI3K δ; read-out: PI3K δ IC50) [µM] | IC50 (PI3K β (p110β/p85α); read-out: PI3K β IC50) [nM] | IC50 (PI3K γ (p110γ)) [µM] | Compound | IC50 (PI3K δ) [µM] | IC50 (PI3K β (p110β/p85α); PI3K β IC50 (nM)) [nM]
27 | < 0.1 | < 10 | < 1000 | < 0.1 | Nc1nc2cc(-c3ccc4ncc(N5CCC(O)C5)nc4c3)ccc2o1 (centres unmarked) [Compound 209] | – | –
28 | < 0.1 | < 1 | < 10000 | < 1 | Cc1cc(-c2ccc3oc(N)nc3c2)cc2c(C(=O)N3CCCC3)cnn12 [Compound 368] | – | –
29 | < 0.1 | < 0.1 | < 1000 | < 10 | COc1ncc(-c2ccc3ncn(C4CCN(C)CC4)c(=O)c3c2)cc1NS(C)(=O)=O [Compound 525] | – | –
30 | < 0.1 | < 1 | < 1000 | < 10 | C[C@@H](N)C(=O)N1CCN(c2cnc3ccc(-c4ccc5oc(N)nc5c4)cc3n2)CC1 [Compound 208] | – | –
31 | < 1 | > 10 | > 10000 | < 10 | CC1(C)CN(C(=O)c2cnc3ccc(-c4ccc5oc(N)nc5c4)cn23)CCO1 [Compound 513] | – | –
32 | < 10 | > 10 | > 10000 | > 10 | Nc1nc2ccc(-c3cc(F)c4ncc(C(=O)N5CCOCC5)n4c3)cc2o1 [Compound 439] | – | –
33 | < 1 | < 1 | < 1000 | < 1 | Nc1nc2cc(-c3ccc4ncc(NCCN5CCCC5)nc4c3)ccc2o1 [Compound 219] | – | –
34 | < 10 | > 10 | < 10000 | < 0.1 | CC(=O)Nc1nc2cc(-c3cc(F)c4oc(N)nc4c3)ccc2s1 [Compound 435] | – | –
35 | > 10 | > 10 | > 10000 | > 10 | Cc1cc(-c2ccc3nc(N)oc3c2)cn2c(N3CCN(C)CC3)nnc12 [Compound 546] | – | –
36 | < 0.1 | > 10 | > 10000 | > 10 | NC(=O)[C@@H]1CCCN1c1cnc2ccc(-c3ccc4oc(N)nc4c3)cc2n1 [Compound 257] | – | –
37 | < 10 | < 10 | < 10000 | < 10 | Nc1nc2cc(-c3ccc4ncn(CCN5CCCC5)c(=O)c4c3)ccc2o1 [Compound 255] | – | –
38 | < 0.1 | > 10 | > 10000 | < 0.1 | Nc1nc2cc(-c3ccc4ncc(C(=O)N5CCC(F)(F)C5)n4c3)ccc2o1 [Compound 471] | – | –
39 | < 10 | > 10 | > 10000 | > 10 | C[C@H]1CN(c2nc3cc(-c4ccc5oc(N)nc5c4)ccc3nc2N)CCN1 [Compound 403] | – | –
40 | < 0.1 | < 0.1 | < 1000 | < 1 | Nc1nc2cc(-c3ccc4ncc(NCCCN5CCOCC5)nc4c3)ccc2o1 [Compound 222] | – | –
41 | < 0.1 | < 1 | < 1000 | < 0.1 | Nc1nc2cc(-c3ccc4ncc(N5CCN(C(=O)C6(N)CCC6)CC5)nc4c3)ccc2o1 [Compound 286] | – | –
42 | > 10 | > 10 | > 10000 | > 10 | O=C(c1cnc2ccc(-c3ccc4c(Nc5ccccc5)nsc4c3)cn12)N1CCOCC1 [Compound 505] | – | –
43 | < 10 | > 10 | > 10000 | > 10 | Nc1nsc2c(-c3ccc4ncc(C(=O)N5CCOCC5)n4c3)cccc12 [Compound 474] | – | –
44 | < 1 | < 0.1 | < 10000 | < 10 | CCN(CC)CCCNC(=O)c1cnc2ccc(-c3ccc4oc(N)nc4c3)cn12 [Compound 302] | – | –
45 | > 10 | > 10 | > 10000 | > 10 | O=C(c1cnc2ccc(-c3ccc4c(Nc5ccccc5)noc4c3)cn12)N1CCOCC1 [Compound 509] | – | –
46 | < 0.1 | < 1 | > 10000 | < 0.1 | O=C(c1cnc2ccc(-c3cncc(NS(=O)(=O)c4ccc(F)cc4F)c3)cn12)N1CCOCC1 [Compound 425] | – | –
47 | < 0.1 | < 1 | < 1000 | < 1 | CN1CCN(CCNc2cnc3ccc(-c4ccc5oc(N)nc5c4)cc3n2)CC1 [Compound 275] | – | –
48 | < 0.1 | < 0.1 | < 1000 | < 0.1 | Nc1nc2cc(-c3ccc4ncc(N5CCN(C(=O)[C@H](N)CO)CC5)nc4c3)ccc2o1 [Compound 299] | – | –
49 | < 1 | < 10 | > 10000 | < 10 | Nc1nc2cc(-c3ccc4ncc(N5CC(N6CCC(O)CC6)C5)nc4c3)ccc2o1 [Compound 341] | – | –
50 | < 10 | > 10 | > 10000 | < 10 | O=C(c1cnc2ccc(-c3cccc(NS(=O)(=O)c4ccccc4)c3)cn12)N1CCOCC1 [Compound 453] | – | –
